Each structure is given as a SMILES string.

The record followed here is patent US8802661B2, “C-28 amides of modified C-3 betulinic acid derivatives as HIV maturation inhibitors” (priority 2010, dated 2014).

One experiment has as its system recombinant NL4-3 virus (Renilla luciferase in nef, Gag P373S). Nature of the experiment: HIV Cell Culture Assay (luciferase reporter virus in MT-2 cells). The note with it: NL43. The format is cell-based. Summed up:
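First, reporter virus was generated in 293T cells and titered on MT-2 cells. Next, MT-2 cells were infected in the presence of serial compound dilutions for 4-5 days. Finally, cells were lysed and luciferase activity was measured to quantify inhibition.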
(In general: In a reporter assay the amount or activity of a reporter protein is the signal.)
By EC50 is commonly meant the concentration giving half of the maximal effect. On to `C=C(C)[C@@H]1CC[C@]2(C(=O)N3CCCCC3)CC[C@]3(C)[C@H](CC[C@@H]4[C@@]5(C)CC=C(c6ccc(C(=O)O)cc6)C(C)(C)[C@@H]5CC[C@]43C)[C@@H]12` [Example 19, 4-((1R,3aS,5aR,5bR,7aR,11aS,11bR,13aR,13bR)-5a,5b,8,8,11a-pentamethyl-3a-(piperidine-1-carbonyl)-1-(prop-1-en-2-yl)-2,3,3a,4,5,5a,5b,6,7,7a,8,11,11a,11b,12,13,13a,13b-octadecahydro-1H-cyclopenta[a]chrysen-9-yl)benzoic acid], for which the EC50 amounted to 370 nM.

Still in this experiment, the particulars now being: NL43, read-out: EC50 Group.
On to `CC1(C)CC[C@]2(C(=O)NCCCN3CCS(=O)(=O)CC3)CC[C@]3(C)C(=CC[C@@H]4[C@@]5(C)CC=C(c6ccc(C(=O)O)cc6)C(C)(C)[C@@H]5CC[C@]43C)[C@@H]2C1` [Example B2, 4-((4aR,6aR,6bS,8aS,12aS,14aR,14bS)-8a-((3-(1,1-dioxido-4-thiomorpholinyl)propyl)carbamoyl)-4,4,6a,6b,11,11,14b-heptamethyl-1,4,4a,5,6,6a,6b,7,8,8a,9,10,11,12,12a,14,14a,14b-octadecahydro-3-picenyl)benzoic acid], for which the EC50 was < 100 nM.

In the case of `C=C(C)[C@@H]1CC[C@]2(C(=O)NCCN(CC(=O)O)Cc3ccccc3)CC[C@]3(C)[C@H](CC[C@@H]4[C@@]5(C)CC=C(c6ccc(C(=O)O)cc6)C(C)(C)[C@@H]5CC[C@]43C)[C@@H]12` [Example 107, 4-((1R,3aS,5aR,5bR,7aR,11aS,11bR,13aR,13bR)-3a-(2-(benzyl(carboxymethyl)amino)ethylcarbamoyl)-5a,5b,8,8,11a-pentamethyl-1-(prop-1-en-2-yl)-2,3,3a,4,5,5a,5b,6,7,7a,8,11,11a,11b,12,13,13a,13b-octadecahydro-1H-cyclopenta[a]chrysen-9-yl)benzoic acid], the EC50 is < 100 nM.

As for `C=C(C)[C@@H]1CC[C@]2(C(=O)NCCC(=O)N3CCC(C(=O)O)CC3)CC[C@]3(C)[C@H](CC[C@@H]4[C@@]5(C)CC=C(c6ccc(C(=O)O)cc6)C(C)(C)[C@@H]5CC[C@]43C)[C@@H]12` [Example 49, 1-(3-((1R,3aS,5aR,5bR,7aR,11aS,11bR,13aR,13bR)-9-(4-carboxyphenyl)-5a,5b,8,8,11a-pentamethyl-1-(prop-1-en-2-yl)-2,3,3a,4,5,5a,5b,6,7,7a,8,11,11a,11b,12,13,13a,13b-octadecahydro-1H-cyclopenta[a]chrysene-3a-carboxamido)propanoyl)piperidine-4-carboxylic acid], the EC50 is < 100 nM.

For `C=C(C)[C@@H]1CC[C@]2(C(=O)NCCNCC(=O)O)CC[C@]3(C)[C@H](CC[C@@H]4[C@@]5(C)CC=C(c6ccc(C(=O)O)cc6)C(C)(C)[C@@H]5CC[C@]43C)[C@@H]12` [Example 81, 4-((1R,3aS,5aR,5bR,7aR,11aS,11bR,13aR,13bR)-3a-(2-(carboxymethylamino)ethylcarbamoyl)-5a,5b,8,8,11a-pentamethyl-1-(prop-1-en-2-yl)-2,3,3a,4,5,5a,5b,6,7,7a,8,11,11a,11b,12,13,13a,13b-octadecahydro-1H-cyclopenta[a]chrysen-9-yl)benzoic acid], the EC50 is < 100 nM.

For `C=C(C)[C@@H]1CC[C@]2(C(=O)NCCN(C)C)CC[C@]3(C)[C@H](CC[C@@H]4[C@@]5(C)CC=C(c6ccc(C(=O)O)c(F)c6)C(C)(C)[C@@H]5CC[C@]43C)[C@@H]12` [Example 104, 4-((1R,3aS,5aR,5bR,7aR,11aS,11bR,13aR,13bR)-3a-(2-(dimethylamino)ethylcarbamoyl)-5a,5b,8,8,11a-pentamethyl-1-(prop-1-en-2-yl)-2,3,3a,4,5,5a,5b,6,7,7a,8,11,11a,11b,12,13,13a,13b-octadecahydro-1H-cyclopenta[a]chrysen-9-yl)-2-fluorobenzoic acid], the EC50 was < 100 nM.

In the case of `C=C(C)[C@@H]1CC[C@]2(C(=O)NCCNCCS(=O)(=O)O)CC[C@]3(C)[C@H](CC[C@@H]4[C@@]5(C)CC=C(c6ccc(C(=O)O)cc6)C(C)(C)[C@@H]5CC[C@]43C)[C@@H]12` [Example 92, 4-((1R,3aS,5aR,5bR,7aR,11aS,11bR,13aR,13bR)-5a,5b,8,8,11a-pentamethyl-1-(prop-1-en-2-yl)-3a-(2-(2-sulfoethylamino)ethylcarbamoyl)-2,3,3a,4,5,5a,5b,6,7,7a,8,11,11a,11b,12,13,13a,13b-octadecahydro-1H-cyclopenta[a]chrysen-9-yl)benzoic acid], the EC50 was < 100 nM.

Turning to `C=C(C)[C@@H]1CC[C@]2(C(=O)NCCN(C)C)CC[C@]3(C)[C@H](CC[C@@H]4[C@@]5(C)CC=C(c6ccc(C(=O)O)c(C(=O)O)c6)C(C)(C)[C@@H]5CC[C@]43C)[C@@H]12` [Example 113, 4-((1R,3aS,5aR,5bR,7aR,11aS,11bR,13aR,13bR)-3a-(2-(dimethylamino)ethylcarbamoyl)-5a,5b,8,8,11a-pentamethyl-1-(prop-1-en-2-yl)-2,3,3a,4,5,5a,5b,6,7,7a,8,11,11a,11b,12,13,13a,13b-octadecahydro-1H-cyclopenta[a]chrysen-9-yl)phthalic acid], the EC50 is > 100 nM.

In the case of `C=C(C)[C@@H]1CC[C@]2(C(=O)NCCN3CCC(F)(F)CC3)CC[C@]3(C)[C@H](CC[C@@H]4[C@@]5(C)CC=C(c6ccc(C(=O)O)cc6F)C(C)(C)[C@@H]5CC[C@]43C)[C@@H]12` [Example 119, 4-((1R,3aS,5aR,5bR,7aR,11aS,11bR,13aR,13bR)-3a-(2-(4,4-difluoropiperidin-1-yl)ethylcarbamoyl)-5a,5b,8,8,11a-pentamethyl-1-(prop-1-en-2-yl)-2,3,3a,4,5,5a,5b,6,7,7a,8,11,11a,11b,12,13,13a,13b-octadecahydro-1H-cyclopenta[a]chrysen-9-yl)-3-fluorobenzoic acid], the EC50 was < 100 nM.

With `CN(C)CCNC(=O)[C@]12CCC(C)(C)C[C@H]1C1=CC[C@@H]3[C@@]4(C)CC=C(c5ccc(C(=O)O)cc5)C(C)(C)[C@@H]4CC[C@@]3(C)[C@]1(C)CC2` [Example B1, 4-((4aR,6aR,6bS,8aS,12aS,14aR,14bS)-8a-(2-(dimethylamino)ethylcarbamoyl)-4,4,6a,6b,11,11,14b-heptamethyl-1,4,4a,5,6,6a,6b,7,8,8a,9,10,11,12,12a,14,14a,14b-octadecahydropicen-3-yl)benzoic acid], the EC50 is < 100 nM.

On to `C=C(C)[C@@H]1CC[C@]2(C(=O)N[C@H](C(=O)O)C(C)C)CC[C@]3(C)[C@H](CC[C@@H]4[C@@]5(C)CC=C(c6ccc(C(=O)O)cc6)C(C)(C)[C@@H]5CC[C@]43C)[C@@H]12` [Example 61, 4-((1R,3aS,5aR,5bR,7aR,11aS,11bR,13aR,13bR)-3a-((S)-1-carboxy-2-methylpropylcarbamoyl)-5a,5b,8,8,11a-pentamethyl-1-(prop-1-en-2-yl)-2,3,3a,4,5,5a,5b,6,7,7a,8,11,11a,11b,12,13,13a,13b-octadecahydro-1H-cyclopenta[a]chrysen-9-yl)benzoic acid], for which the EC50 was < 100 nM.
